Test results taken from ChEMBL document CHEMBL4417631, “Oral peptide inhibitors of interleukin-23 receptor and their use to treat inflammatory bowel diseases” (2017).

Assays:
Interleukin-23 receptor [1] = target: T1, Interleukin-23 receptor (Homo sapiens, UniProt Q5VWK5); experiment: Inhibition of interleukin-23 binding to human interleukin-23 receptor incubated for 2 hrs by competitive binding ELISA
T1 sequence (Q5VWK5 whole entry): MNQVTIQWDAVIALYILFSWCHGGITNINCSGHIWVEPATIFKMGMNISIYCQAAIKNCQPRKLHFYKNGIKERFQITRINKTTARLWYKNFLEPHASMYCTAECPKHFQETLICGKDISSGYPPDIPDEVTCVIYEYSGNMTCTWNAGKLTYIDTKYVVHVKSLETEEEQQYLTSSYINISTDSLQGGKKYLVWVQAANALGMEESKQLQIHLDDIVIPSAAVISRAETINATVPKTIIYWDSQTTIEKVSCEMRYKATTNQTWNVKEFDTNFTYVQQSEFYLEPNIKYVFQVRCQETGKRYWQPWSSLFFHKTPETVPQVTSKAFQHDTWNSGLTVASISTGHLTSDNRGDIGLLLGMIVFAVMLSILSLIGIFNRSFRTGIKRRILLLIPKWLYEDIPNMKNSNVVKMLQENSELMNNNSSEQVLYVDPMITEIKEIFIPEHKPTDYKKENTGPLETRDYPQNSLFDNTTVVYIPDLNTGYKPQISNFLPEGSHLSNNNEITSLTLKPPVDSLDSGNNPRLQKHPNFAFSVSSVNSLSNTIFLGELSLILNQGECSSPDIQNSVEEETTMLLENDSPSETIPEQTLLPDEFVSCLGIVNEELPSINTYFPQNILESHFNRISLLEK

Interleukin-23 receptor [2] = target: T1, Interleukin-23 receptor; experiment: Inhibition of interleukin-23 receptor in human DB cells assessed as reduction in IL-23-stimulated STAT3 phosphorylation incubated for 30 mins by HTRF assay; assay type: cell-based
[3] = Inhibition of interleukin-23 binding to rat interleukin-23 receptor incubated for 2 hrs by competitive binding ELISA
[4] = Half life in simulated gastric fluid at 20 uM by LC-MS/MS analysis; assay type: ADME
[5] = Half life in simulated intestinal fluid at 20 uM by LC-MS/MS analysis; assay type: ADME
Interleukin-23 receptor [6] = target: T1, Interleukin-23 receptor; experiment: Inhibition of interleukin-23 receptor in human natural killer cells assessed as reduction in IL23/IL18-induced IFNgamma production incubated for 20 to 24 hrs by ELISA; assay type: cell-based

Structure (SMILES)	IC50 (Interleukin-23 receptor [1]) [nM]	IC50 (Interleukin-23 receptor [2]) [nM]	IC50 [3] [nM]	half-life at 20 µM [4] [h]	half-life at 20 µM [5] [h]	IC50 (Interleukin-23 receptor [6]) [nM]
COc1ccc(C[C@H](NC(=O)[C@H]2NC(=O)[C@H](CCC(N)=O)NC(=O)[C@H](Cc3c[nH]c4ccccc34)NC(=O)[C@H]([C@@H](C)O)NC(=O)[C@H](CCC(N)=O)NC(=O)[C@@H](NC(C)=O)CCSC2(C)C)C(=O)N[C@@H](Cc2ccc3ccccc3c2)C(=O)N[C@@](C)(CCCCN)C(=O)N[C@@H](CCC(=O)O)C(=O)N[C@@H](CC(N)=O)C(=O)NCC(N)=O)cc1	100 to 1000	25 to 100	100 to 1000	2 to 3	3 to 6	–
COc1ccc(C[C@H](NC(=O)[C@@H](NC(=O)[C@H](CCC(N)=O)NC(=O)[C@H](Cc2c[nH]c3ccccc23)NC(=O)[C@@H](NC(=O)[C@H](CCC(N)=O)NC(=O)[C@@H](NC(=O)[C@@H]2CCC(=O)N2)C(C)(C)S)[C@@H](C)O)C(C)(C)S)C(=O)N[C@@H](Cc2ccc3ccccc3c2)C(=O)N[C@@](C)(CCCCN)C(=O)N[C@@H](CCCCNC(C)=O)C(=O)N[C@@H](CC(N)=O)C(=O)NCC(N)=O)cc1	25 to 100	< 10	25 to 100	3 to 6	> 6	–
COc1ccc(C[C@H](NC(=O)[C@H](Cc2ccc(OCCN)cc2)NC(=O)[C@@H]2CSCC[C@H](NC(C)=O)C(=O)N[C@@H](CCC(N)=O)C(=O)N[C@@H]([C@@H](C)O)C(=O)N[C@@H](Cc3c[nH]c4ccccc34)C(=O)N[C@@H](CCC(N)=O)C(=O)N2)C(=O)N[C@@](C)(CCCCN)C(=O)N[C@@H](CCCCNC(C)=O)C(=O)N[C@@H](CC(N)=O)C(=O)NCC(N)=O)cc1OC	10 to 25	< 10	25 to 100	–	–	< 25
COc1ccc(C[C@H](NC(=O)[C@@H]2CSCC[C@H](NC(C)=O)C(=O)N[C@@H](CCC(N)=O)C(=O)N[C@@H]([C@@H](C)O)C(=O)N[C@@H](Cc3c[nH]c4ccccc34)C(=O)N[C@@H](CCC(N)=O)C(=O)N2)C(=O)N[C@@H](Cc2ccc3ccccc3c2)C(=O)N[C@@](C)(CCCCNC(=O)COCC(=O)NCCCC[C@](C)(NC(=O)[C@H](Cc2ccc3ccccc3c2)NC(=O)[C@H](Cc2ccc(OC)cc2)NC(=O)[C@@H]2CSCC[C@H](NC(C)=O)C(=O)N[C@@H](CCC(N)=O)C(=O)N[C@@H]([C@@H](C)O)C(=O)N[C@@H](Cc3c[nH]c4ccccc34)C(=O)N[C@@H](CCC(N)=O)C(=O)N2)C(=O)N[C@@H](CCC(=O)O)C(=O)N[C@@H](CC(N)=O)C(=O)NCC(N)=O)C(=O)N[C@@H](CCC(=O)O)C(=O)N[C@@H](CC(N)=O)C(=O)NCC(N)=O)cc1	< 10	< 10	10 to 25	–	–	< 25
CC(=O)N[C@H](C(=O)N[C@@H](CCC(N)=O)C(=O)N[C@H](C(=O)N[C@@H](Cc1c[nH]c2ccccc12)C(=O)N[C@@H](CCC(N)=O)C(=O)N[C@H](C(=O)N[C@@H](Cc1ccc(OCCN)cc1)C(=O)N[C@@H](Cc1ccc2ccccc2c1)C(=O)N[C@@](C)(CCCCN)C(=O)N[C@@H](CCC(=O)O)C(=O)N[C@@H](CC(N)=O)C(=O)N[C@@H](C)C(N)=O)C(C)(C)S)[C@@H](C)O)C(C)(C)S	< 10	< 10	25 to 100	> 6	> 6	–
COc1ccc(C[C@H](NC(=O)[C@@H]2CSCC[C@H](NC(C)=O)C(=O)N[C@@H](CCC(N)=O)C(=O)N[C@@H]([C@@H](C)O)C(=O)N[C@@H](Cc3c[nH]c4ccccc34)C(=O)N[C@@H](CCC(N)=O)C(=O)N2)C(=O)N[C@@H](Cc2c[nH]c3ccccc23)C(=O)N[C@@](C)(CCCN)C(=O)N[C@@H](CCC(=O)O)C(=O)N[C@@H](CC(N)=O)C(=O)NCC(N)=O)cc1	25 to 100	< 10	25 to 100	< 1	3 to 6	–
CC(=O)NCCCC[C@H](NC(=O)[C@](C)(CCCCN)NC(=O)[C@H](Cc1ccc2ccccc2c1)NC(=O)[C@H](Cc1ccc(OCCN)cc1)NC(=O)[C@@H]1CSCC[C@H](NC(=O)CCC(=O)O)C(=O)N[C@@H](CCC(N)=O)C(=O)N[C@@H]([C@@H](C)O)C(=O)N[C@@H](Cc2c[nH]c3ccccc23)C(=O)N[C@@H](CCC(N)=O)C(=O)N1)C(=O)N[C@@H](CC(N)=O)C(=O)NCC(N)=O	< 10	< 10	< 10	3 to 6	> 6	–
CC(=O)NCCCC[C@H](NC(=O)[C@](C)(CCCCN)NC(=O)[C@H](Cc1ccc2ccccc2c1)NC(=O)[C@H](Cc1ccc(C(N)=O)cc1)NC(=O)[C@@H](NC(=O)[C@H](CCC(N)=O)NC(=O)[C@H](Cc1c[nH]c2ccccc12)NC(=O)[C@@H](NC(=O)[C@H](CCC(N)=O)NC(=O)[C@@H](NC(C)=O)C(C)(C)S)[C@@H](C)O)C(C)(C)S)C(=O)N[C@@H](CC(N)=O)C(=O)N[C@@H](CC(N)=O)C(N)=O	–	< 10	25 to 100	–	–	< 10
